Molecular target: T1, EGFR (Homo sapiens, UniProt P00533)
T1 construct: endogenous in cells; host or cells: A431 cells (lysate, captured with SUMO1 anti-EGFR antibody)
Assay: Biochemical EGFR Assay
Set-up: concentration or dose not given beside the values
Details: protocol P.167
Summary of the method: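 Readout is ABTS absorbance at 410 nm after anti-phosphotyrosine and HRP-antibody detection of EGFR autophosphorylation. The kinase was immunocaptured from A431 lysate, exposed 30 min to test compound diluted 1:10 in TBS, then phosphorylated for 5 min with ATP/MnCl2 before an EDTA stop.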

T1 sequence (P00533 25-1210): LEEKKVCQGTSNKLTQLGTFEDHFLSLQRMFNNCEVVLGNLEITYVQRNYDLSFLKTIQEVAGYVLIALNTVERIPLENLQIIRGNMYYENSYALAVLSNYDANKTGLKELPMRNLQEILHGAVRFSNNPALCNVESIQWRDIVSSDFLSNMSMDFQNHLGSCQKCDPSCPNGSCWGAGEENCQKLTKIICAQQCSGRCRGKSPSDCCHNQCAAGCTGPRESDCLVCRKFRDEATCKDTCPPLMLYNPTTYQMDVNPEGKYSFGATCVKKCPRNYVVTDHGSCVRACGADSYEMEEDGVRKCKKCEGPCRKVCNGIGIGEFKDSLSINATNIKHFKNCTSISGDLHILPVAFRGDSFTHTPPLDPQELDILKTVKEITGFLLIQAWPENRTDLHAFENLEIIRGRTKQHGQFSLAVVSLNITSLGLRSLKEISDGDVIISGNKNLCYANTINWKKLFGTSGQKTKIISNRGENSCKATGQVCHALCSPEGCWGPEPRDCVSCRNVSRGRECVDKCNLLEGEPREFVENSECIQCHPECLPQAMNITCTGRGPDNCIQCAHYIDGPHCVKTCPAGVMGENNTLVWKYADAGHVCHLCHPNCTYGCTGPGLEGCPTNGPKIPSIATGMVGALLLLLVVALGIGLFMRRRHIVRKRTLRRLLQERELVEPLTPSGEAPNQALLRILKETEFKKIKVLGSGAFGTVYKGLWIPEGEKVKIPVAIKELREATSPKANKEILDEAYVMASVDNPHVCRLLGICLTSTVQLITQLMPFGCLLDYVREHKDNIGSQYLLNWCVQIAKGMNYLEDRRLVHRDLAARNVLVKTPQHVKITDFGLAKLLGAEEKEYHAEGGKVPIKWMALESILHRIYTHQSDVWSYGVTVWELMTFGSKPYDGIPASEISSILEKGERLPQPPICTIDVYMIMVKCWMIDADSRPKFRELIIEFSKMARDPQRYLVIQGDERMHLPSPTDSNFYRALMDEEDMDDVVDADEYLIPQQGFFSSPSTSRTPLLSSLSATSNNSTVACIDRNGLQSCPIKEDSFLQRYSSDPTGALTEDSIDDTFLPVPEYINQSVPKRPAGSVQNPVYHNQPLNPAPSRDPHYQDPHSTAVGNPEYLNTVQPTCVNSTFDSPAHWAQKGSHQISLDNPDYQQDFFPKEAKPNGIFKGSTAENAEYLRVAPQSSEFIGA

Row | SMILES | Biochem EGFR % Inhibition (P.167) [%]
1 | O=C1Nc2ccc(S(=O)(=O)N3CCOCC3)cc2C1=Cc1ccc(Cl)c(Cl)c1 [10738/F08] | 15.5
2 | CNS(=O)(=O)c1ccc2c(c1)C(=Cc1ccccc1OC)C(=O)N2 [10738/D09] | 12.1
3 | Cc1ccc(Oc2cccc(C=C3C(=O)Nc4c(Br)cc(Br)cc43)c2)cc1 [10738/A02] | 16.7
4 | Cc1c(Br)ccc2c1C(=Cc1ccc(Cl)c(Cl)c1)C(=O)N2 [10738/C08] | −11.9
5 | Cc1ccc(C)c(C=C2C(=O)Nc3c(Br)cc(Br)c(C)c32)c1 [10737/H07] | 17.2
6 | O=C1Nc2ccc(S(=O)(=O)Nc3ccc(C(F)(F)F)cc3)cc2C1=Cc1cccc(Oc2ccc(Cl)c(Cl)c2)c1 [10738/E03] | 82.6
7 | O=C1Nc2ccc(I)cc2C1=Cc1ccc(Cl)c(Cl)c1 [10738/B08] | 33.9
8 | Cc1c(Br)ccc2c1C(=Cc1cc(O)ccc1[N+](=O)[O-])C(=O)N2 [10738/C05] | 18.4
9 | Cc1ccc(Oc2cccc(C=C3C(=O)Nc4ccc(I)cc43)c2)cc1 [10738/B02] | −24.4
10 | O=C1Nc2ccc(I)cc2C1=Cc1cccc(Oc2ccc(Cl)c(Cl)c2)c1 [10738/B03] | 19.2
11 | CC(C)c1ccc(C=C2C(=O)Nc3ccc(CCCl)cc32)cc1 [10738/G10] | 26.5
12 | O=C1Nc2ccc(CCCl)cc2C1=Cc1ccc(Cl)c(Cl)c1 [10738/G08] | 23.6
13 | O=C1Nc2ccc(CCCl)cc2C1=Cc1cccc(O)c1O [10738/G06] | −8.2
14 | CNS(=O)(=O)c1ccc2c(c1)C(=Cc1ccc(Cl)c(Cl)c1)C(=O)N2 [10738/D08] | 0.6
15 | O=C1Nc2ccc(S(=O)(=O)N3CCOCC3)cc2C1=Cc1cc(O)cc(O)c1 [10738/F07] | 9.1
16 | CCCOc1ccc(C=C2C(=O)Nc3c(Br)cc(Br)cc32)cc1 [10738/A11] | 4.5
17 | Cc1ccc(Oc2cccc(C=C3C(=O)Nc4ccc(S(=O)(=O)N5CCOCC5)cc43)c2)cc1 [10738/F02] | 13.1
18 | CC(C)c1ccc(C=C2C(=O)Nc3ccc(S(=O)(=O)Nc4ccc(C(F)(F)F)cc4)cc32)cc1 [10738/E10] | 34.1
19 | Cc1c(Br)cc(Br)c2c1C(=Cc1cccc(O)c1O)C(=O)N2 [10738/H06] | −53.8
20 | O=C1Nc2ccc(CCCl)cc2C1=Cc1cc(O)cc(O)c1 [10738/G07] | −1.9
21 | Cc1c(Br)ccc2c1C(=Cc1cc(O)cc(O)c1)C(=O)N2 [10738/C07] | −19.0
22 | COc1ccccc1C=C1C(=O)Nc2ccc(I)cc21 [10738/B09] | 20.9
23 | Cc1ccc(Oc2cccc(C=C3C(=O)Nc4ccc(Br)c(C)c43)c2)cc1 [10738/C02] | −30.5

Row | SMILES | Biochem EGFR % Inhibition (P.167) [%]
24 | O=C1Nc2ccc(S(=O)(=O)Nc3ccc(C(F)(F)F)cc3)cc2C1=Cc1cc(O)cc(O)c1 [10738/E07] | 57.1
25 | Cc1c(Br)cc(Br)c2c1C(=Cc1cc(O)ccc1[N+](=O)[O-])C(=O)N2 [10738/H05] | 5.5
26 | CC(C)c1ccc(C=C2C(=O)Nc3ccc(S(=O)(=O)N4CCOCC4)cc32)cc1 [10738/F10] | −4.8
27 | Cc1c(Br)cc(Br)c2c1C(=Cc1cccc(Oc3ccc(Cl)c(Cl)c3)c1)C(=O)N2 [10738/H03] | 16.7
28 | CCCOc1ccc(C=C2C(=O)Nc3ccc(I)cc32)cc1 [10738/B11] | 18.0
29 | CCCOc1ccc(C=C2C(=O)Nc3ccc(S(=O)(=O)N4CCOCC4)cc32)cc1 [10738/F11] | −14.8
30 | O=C1Nc2ccc(S(=O)(=O)N3CCOCC3)cc2C1=Cc1cccc(Oc2ccc(Cl)c(Cl)c2)c1 [10738/F03] | 45.6
31 | O=C1Nc2c(Br)cc(Br)cc2C1=Cc1cc(O)ccc1[N+](=O)[O-] [10738/A05] | 33.6
32 | CCCOc1ccc(C=C2C(=O)Nc3ccc(CCCl)cc32)cc1 [10738/G11] | 19.4
33 | Cc1c(Br)cc(Br)c2c1C(=Cc1ccc(Oc3ccccc3)cc1)C(=O)N2 [10737/H09] | −15.9
34 | COc1ccc(C=C2C(=O)Nc3ccc(S(=O)(=O)N4CCOCC4)cc32)cc1O [10738/F04] | −6.5
35 | CNS(=O)(=O)c1ccc2c(c1)C(=Cc1ccc(OC)c(O)c1)C(=O)N2 [10738/D04] | 7.4
36 | Cc1c(Br)ccc2c1C(=Cc1ccc(C(C)C)cc1)C(=O)N2 [10738/C10] | 5.2
37 | Cc1c(Br)cc(Br)c2c1C(=Cc1cccc(Oc3ccc(C(C)(C)C)cc3)c1)C(=O)N2 [10737/H10] | 0.3
38 | CCCOc1ccc(C=C2C(=O)Nc3ccc(S(=O)(=O)NC)cc32)cc1 [10738/D11] | −13.1
39 | CC(C)c1ccc(C=C2C(=O)Nc3c(Br)cc(Br)cc32)cc1 [10738/A10] | −0.9
40 | CCCOc1ccc(C=C2C(=O)Nc3ccc(S(=O)(=O)Nc4ccc(C(F)(F)F)cc4)cc32)cc1 [10738/E11] | 15.8
41 | CNS(=O)(=O)c1ccc2c(c1)C(=Cc1ccc(C(C)C)cc1)C(=O)N2 [10738/D10] | −12.4
42 | O=C1Nc2ccc(S(=O)(=O)Nc3ccc(C(F)(F)F)cc3)cc2C1=Cc1cccc(O)c1O [10738/E06] | 15.8
43 | CCCOc1ccc(C=C2C(=O)Nc3ccc(Br)c(C)c32)cc1 [10738/C11] | −1.1
44 | COc1ccccc1C=C1C(=O)Nc2ccc(S(=O)(=O)Nc3ccc(C(F)(F)F)cc3)cc21 [10738/E09] | 35.3
45 | Cc1c(Br)ccc2c1C(=Cc1cccc(Oc3ccc(Cl)c(Cl)c3)c1)C(=O)N2 [10738/C03] | 8.2
46 | COc1ccc(C=C2C(=O)Nc3c(Br)cc(Br)cc32)cc1O [10738/A04] | −17.5

Row | SMILES | Biochem EGFR % Inhibition (P.167) [%]
47 | COc1ccc(C=C2C(=O)Nc3ccc(I)cc32)cc1O [10738/B04] | 51.2
48 | CNS(=O)(=O)c1ccc2c(c1)C(=Cc1cccc(Oc3ccc(C)cc3)c1)C(=O)N2 [10738/D02] | 21.4
49 | O=C1Nc2c(Br)cc(Br)cc2C1=Cc1cc(O)cc(O)c1 [10738/A07] | 4.3
50 | COc1ccc(C=C2C(=O)Nc3ccc(S(=O)(=O)Nc4ccc(C(F)(F)F)cc4)cc32)cc1O [10738/E04] | 13.1
51 | COc1ccc(C=C2C(=O)Nc3ccc(Br)c(C)c32)cc1O [10738/C04] | 43.7
52 | COc1ccccc1C=C1C(=O)Nc2ccc(CCCl)cc21 [10738/G09] | 16.7
53 | Cc1c(Br)cc(Br)c2c1C(=Cc1ccc3ccccc3c1)C(=O)N2 [10737/H08] | −36.6
54 | O=C1Nc2ccc(S(=O)(=O)Nc3ccc(C(F)(F)F)cc3)cc2C1=Cc1cc(O)ccc1[N+](=O)[O-] [10738/E05] | 52.0
55 | O=C1Nc2ccc(CCCl)cc2C1=Cc1cc(O)ccc1[N+](=O)[O-] [10738/G05] | 27.3
56 | CC(C)c1ccc(C=C2C(=O)Nc3ccc(I)cc32)cc1 [10738/B10] | 37.3
57 | O=C1Nc2ccc(CCCl)cc2C1=Cc1cccc(Oc2ccc(Cl)c(Cl)c2)c1 [10738/G03] | 31.9
58 | O=C1Nc2ccc(I)cc2C1=Cc1cc(O)ccc1[N+](=O)[O-] [10738/B05] | 57.6
59 | O=C1Nc2ccc(S(=O)(=O)N3CCOCC3)cc2C1=Cc1cccc(O)c1O [10738/F06] | −19.5
60 | O=C1Nc2ccc(S(=O)(=O)N3CCOCC3)cc2C1=Cc1cc(O)ccc1[N+](=O)[O-] [10738/F05] | 51.5
61 | CNS(=O)(=O)c1ccc2c(c1)C(=Cc1cc(O)ccc1[N+](=O)[O-])C(=O)N2 [10738/D05] | 4.3
62 | Cc1ccc(Oc2cccc(C=C3C(=O)Nc4ccc(CCCl)cc43)c2)cc1 [10738/G02] | 19.9
63 | O=C1Nc2ccc(S(=O)(=O)Nc3ccc(C(F)(F)F)cc3)cc2C1=Cc1ccc(Cl)c(Cl)c1 [10738/E08] | 43.2
64 | O=C1Nc2c(Br)cc(Br)cc2C1=Cc1cccc(Oc2ccc(Cl)c(Cl)c2)c1 [10738/A03] | 40.5
65 | O=C1Nc2c(Br)cc(Br)cc2C1=Cc1cccc(O)c1O [10738/A06] | 54.9
66 | O=C1Nc2ccc(I)cc2C1=Cc1cccc(O)c1O [10738/B06] | 22.9
67 | CNS(=O)(=O)c1ccc2c(c1)C(=Cc1cccc(Oc3ccc(Cl)c(Cl)c3)c1)C(=O)N2 [10738/D03] | 47.6
68 | COc1ccccc1C=C1C(=O)Nc2c(Br)cc(Br)cc21 [10738/A09] | 17.0
69 | COc1ccc(C=C2C(=O)Nc3c(Br)cc(Br)c(C)c32)cc1O [10738/H04] | −7.0

— patent US20020026053A1, “Novel 3-(substituted) -2- indolinones compounds and use thereof as inhibitors of protein kinase activity” (priority 1997, published 2002)
